# From publication PMC13672995, “NCR13 peptide protects soybean against Cercospora sojina using multi-faceted modes of action and additive interaction with chemical fungicides” (Journal of Experimental Botany, 2025)
# Entries after “also recorded” stand apart in the source; their conditions may differ. Where no end group is shown, it is not given here.
# Columns and labels:
# [1] = tested on: C. sojina QoI fungicide-resistant isolate Cs350; type: cell-based, Cercospora sojina
# Experimental: (§1) In vitro antifungal activity of AFPs and QoI fungicides was determined using 96-well plate assays as described ([Velivelli et al., 2020]) with slight modifications. Briefly, 2- to 3-week-old C. sojina was used to make a conidial suspension in 2× SFM at the final concentration of ∼10^5 conidia ml^−1. Simultaneously, peptide dilutions (in water) at various concentrations were made. Fungicides were dissolved in 50% acetone and 50% water to make a stock solution of 500 µM, and serial dilutions were made in water as needed. The peptide–conidia or the fungicide–conidia mixture at the ratio of 1:1 (45 µl:45 µl) was added in a 96-well plate and incubated at room temperature for 48 h, after which MICs of the peptides/fungicides were calculated based on microscopy as well as the resazurin cell viability assay ([Velivelli et al., 2020]).
# [2] = Peroxidase assay (TMB substrate); type: biochemical; settings: heme 5 µM, peptide 5 µM, absorption at 370 nm and 652 nm
# Experimental: A Pierce TMB substrate kit (Thermo Scientific) was used to measure the peroxidase activity of heme. In a transparent 96-well plate, 50 µl of TMB substrate and 50 µl of […] were added followed by addition of heme (5 µM) or peptides plus heme (5 µM each). The reaction progression was measured in the Tecan plate reader, by recording UV-vis absorption values at 370 nm and 652 nm for every minute up to 1 h.
# [3] = tested on: protein translation in C. sojina Cs350 germlings; experiment: In vivo protein translation inhibition assay (puromycin labeling); type: cell-based, Cercospora sojina; settings: germlings treated 2 h at 6 µM and 12 µM, puromycin 1 mM 3 h; n=3
# Experimental: To assess the translation inhibition of NCR13_PFV1 in C. sojina Cs350, we adapted a recently established puromycin labeling protocol in B. cinerea with minor modifications ([Godwin and Shah, 2025]). Cercospora sojina spores at a concentration of ∼10^5 ml^–1 were inoculated in SFM and cultured for 18 h. The germlings were then treated with NCR13_PFV1 (6 µM and 12 µM) or cycloheximide (50 µg ml^–1) (positive control) for 2 h, followed by the addition of puromycin (1 mM) and incubation for 3 h at 28 °C. After incubation, the germlings were washed three times with sterile water. Total proteins were extracted from germlings using lysis buffer (100 mM HEPES, 5 mM EDTA, 0.1% Triton-X 100, and yeast/fungal protease inhibitor cocktail) and the concentration was estimated using the Pierce BCA Protein Assay Kit (Thermo Scientific). Equal amounts (10 µg) of fungal protein were separated on a 4–20% mini-PROTEAN TGX stain-free protein gel (Bio-Rad, Cat No: 4568094). Western blot analysis was performed using an anti-puromycin antibody (Cell Signaling Technology, Cat No: 40939S), and signal intensities were quantified using Fiji ([Schindelin et al., 2012]).
# [4] = tested on: soybean cv. Blackhawk plants; settings: 48 µM spray
# Experimental: To test the potential phytotoxicity of NCR13_PFV1 spray on soybean plants, 48 µM NCR13_PFV1 or water was first sprayed on 4-week-old soybean cv. Blackhawk plants (2 ml per plant) followed by biweekly sprays at 5 ml per plant until plants were 10 weeks old. When plants reached 12 weeks, photographs were taken for phenotypic analysis and the plants were allowed to mature. Soybean pods were harvested when the plants were all dry and mature, and the number of pods, 100 seed weight, and total seed weight were determined. At least four plants per treatment were tested.
# [5] = tested on: C. sojina QoI fungicide-sensitive isolate Cs320; experiment: microbe, parasite or virus in culture; type: cell-based, Cercospora sojina; settings: SFM, ~10^5 conidia ml−1, room temperature, 48 h; resazurin cell viability assay and microscopy
# Experimental: as §1
# [6] = tested on: fungicide-sensitive and -resistant isolates of C. sojina; experiment: In vitro antifungal activity assay (MIC stated across isolates); type: cell-based, Cercospora sojina; settings: range over Cs320 and Cs350; 48 h
# Experimental: as §1
# [7] = tested on: C. sojina Cs350 cells; experiment: Uptake and subcellular localization by time-lapse confocal microscopy; type: cell-based, Cercospora sojina; settings: DyLight550-labeled peptide; nuclear localization mostly at 0.75 μM (0.5× MIC); Hoechst, CMAC and BODIPY co-staining
# Experimental: NCR13_PFV1 was labeled with DyLight550 amine-reactive dye following the manufacturer’s instructions (Thermo Scientific), and time-lapse confocal microscopy was performed to measure the uptake and subcellular localization of the peptide in C. sojina Cs350 cells. The nuclear staining dye Hoechst 3352 was used along with DyLight550-NCR13_PFV1 to determine the subcellular localization of NCR13_PFV1 in C. sojina. Conidia grown for 6–8 h were treated with 0.75 µM Dylight550-NCR13_PFV1 and incubated for 30 min, after which 4 µM Hoechst 3352 dye was added for another 15 min. Treated conidia were used to capture z-stacks at specific time intervals using a Leica SP8-X confocal microscope (×63 water immersion objective lens, HC PL Apochromat CS2) in fluorescence and transmitted light mode. The excitation and emission wavelengths of DyLight550-NCR13_PFV1 and Hoechst 3352 were 550 nm, 560–660 nm, and 405 nm, 420–500 nm, respectively. Similarly, to determine the subcellular localization of NCR13_PFV1 in other organelles, C. sojina conidia were also stained with the vacuole-specific dye CMAC and the lipid staining dye BODIPY 493/503 (Thermo Scientific). The excitation and emission wavelengths for CMAC and BODIPY were 405 nm, 420–500 nm, and 493 nm, 505–540 nm, respectively.
# [8] = tested on: azoxystrobin-resistant C. sojina Cs350 conidia; experiment: Cell death detection assay (propidium iodide, confocal microscopy); type: cell-based, Cercospora sojina; settings: NCR13_PFV1 1.5 μM alone; within 1 h; PI staining; n=3
# Experimental: The fungicidal activity of azoxystrobin and peptide NCR13_PFV1 in azoxystrobin-resistant C. sojina Cs350 was analyzed by visualizing the influx of a cell death indicator dye propidium iodide (PI) using time-lapse confocal microscopy. The C. sojina conidia were treated with various concentrations of azoxystrobin, NCR13_PFV1, azoxystrobin plus NCR13_PFV1, or water and 0.5 μg ml^–1 PI, and were observed under confocal microscopy at an excitation and emission wavelength of 500 nm and 545–690 nm, respectively. Z-stacks at each time point were acquired using a ×63 water immersion objective lens (HC PL Apochromat CS2). For each sample, the number of live and dead cells after 1 h of peptide, fungicide, or combination treatment was determined.
sequence,measurement,setting,value
"TKPCQSDKDCKKFACRKPKVPKCINGFCKCVR (disulfide (positions not given here)) [NCR13_PFV1, chickpea nodule-specific cysteine-rich 32 amino acid peptide, disulfide cross-linking variant 1, expressed in Pichia pastoris]",MIC in SFM without iron,"[1]; 0 μM FeSO4, 2 d",0.75 µM
same,change of MIC with calcium supplementation,"[1]; CaCl2, up to 20 μM",No change in MIC
same,MIC in SFM with ≥7.5 μM iron,"[1]; FeSO4 up to 60 μM, 2 d",3 µM
same,change of MIC with manganese supplementation,"[1]; MnSO4, various concentrations",No change in MIC
same,"MIC (μM) against C. sojina, Fungicide resistant, Cs350","[1]; SFM, ~10^5 conidia ml−1, room temperature, 48 h, resazurin cell viability assay and microscopy",1.5 µM
same,change of MIC with zinc supplementation,"[1]; ZnSO4, various concentrations",No change in MIC
same,peroxidase activity of heme and FeSO4 in the presence of peptide,[2],not reduced or stopped
same,concentration from which protein translation inhibition was observed,[3],6 µM
same,"morphology of sprayed plants (growth rate, height, leaf color) compared with water","[4]; bi-weekly from the fourth to the 10th week, at least four plants",No morphological difference
same,"number of pods, 100 seed weight, total seed yield compared with water","[4]; at maturity, Student’s t-test",no significant differences
same,"MIC (μM) against C. sojina isolates, Fungicide sensitive, Cs320",[5],0.75 µM
same,MIC against fungicide-sensitive and -resistant isolates of C. sojina,[6],0.75 to 1.5 µM
same,subcellular localization,[7],localized to the nucleus; also recorded: no evidence of co-localization of the peptide with either lipid bodies or the vacuole
same,cell death,[8],57%
